# According to patent US11246961B2, “Engineered scaffolds for vascularized tissue repair” (The Regents of the University of California, priority 2016, dated 2022):
# “Also recorded” adds a separate entry of the source.
# Legend:
# HECFCs = experiment: on-bead whole cell binding assay, HECFCs; type: cell-based, human
# Source text: Endothelial colony forming cells (ECFCs), a subtype of EPCs also often referred to as outgrowth endothelial cells (OECs), were isolated from human umbilical cord blood as previously described (Williams et al. (2015) PloS One 10:e0123437; Ingram et al. (2004) Blood 104:2752). Human umbilical cord blood (10 U heparin/mL blood) was obtained from the UC Davis Umbilical Cord Blood Collection Program (UCBCP) and diluted 1:1 with Phosphate-buffered saline (PBS), without calcium and magnesium, pH 7.2 (Hyclone). Fifteen mL Ficoll-Paque PLUS (Amersham Biosciences) was laid at the bottom of 20 mL diluted blood and centrifuged at 2000 rpm for 30 minutes at room temperature. The hazy layer of mononuclear cells (MNCs) that seat at the interface between the Ficoll and serum was collected and dispensed into 50-mL conical tube containing 10 mL EBM-2 (Lonza) and centrifuged at 1500 rpm for 10 minutes at room temperature. The supernatant was carefully aspirated and the pellets were treated with red blood cell lysis buffer (eBioscience, Inc.) and then sorted by CD34 microbead magnetic sorting (Miltenyi Biotec GmbH) as per manufacturer's instructions. The CD34^+ cells were seeded on rat-tail collagen I (BD Biosciences Discovery) coated tissue culture plates and cultured in EGM-2 media (Lonza). After 24 h, non-adherent cells were removed and the media was changed daily to day 7 and every other day thereafter. ECFC-derived colonies appeared between day 4 and day 7 of culture with s typical endothelial cobblestone pattern. Individual colonies were isolated and expanded and allowed to grow to 80% to 90% confluency before first passage. ECFCs were used between P3 and P5 for all experiments.
# HECFCs, HCAECs, HMVECs and THP-1 monocytes were cultured in their respective growth medium as described in Example 1. For cell bead-binding assay, 6×10^5 HECFCs, HCAECs, HMVECs or THP-1 monocytes in 2 mL of their respective culture medium were added to an ultra-low attachment 35-mm petri dish (Corning Incorporated) followed by resin beads (Lam et al. (1991) Nature 354:82). […]
# HCAECs [1] = experiment: on-bead whole cell binding assay, HCAECs; type: cell-based, human
# Source text: Human coronary artery endothelial cells (HCAECs) were purchased from ATCC. Human cardiac microvascular endothelial cells (HMVECs) were purchased from Lonza. THP-1 monocytes were obtained from Dr. Pamela Lein (University of California, Davis). The myeloid leukemia K562 cells that have been transfected with human integrin αvβ3 gene (αvβ3-K562 cells) were provided by Dr. Yoshikazu Takada and the K562 cells transfected with human integrin αIIbβ3 gene (αIIb3-K562 cells) were provided Dr. Jennifer Cochran (Stanford University)
# (§1) HECFCs, HCAECs, HMVECs and THP-1 monocytes were cultured in their respective growth medium as described in Example 1. For cell bead-binding assay, 6×10^5 HECFCs, HCAECs, HMVECs or THP-1 monocytes in 2 mL of their respective culture medium were added to an ultra-low attachment 35-mm petri dish (Corning Incorporated) followed by resin beads (Lam et al. (1991) Nature 354:82). The dishes were incubated in a shaking incubator at 37° C., 5% CO2 for various time points at 40 rpm. For platelet bead-binding assay, the platelets isolated as described in Example 1 were added to an ultra-low attachment 35-mm petri dish and incubated with the resin beads in the shaking incubator as described for the cell-bead binding assy. Phase contrast images were taken at different time points using an Olympus IX81 microscope.
# Three integrin-targeting ligands—LXY30 (α3β1), LLP2A (α4β1) and LXW7 (αvβ3)—were tested for their binding activities to EPCs and ECs. […] LXY30 only bound to ECs, not to EPCs. LLP2A only bound to EPCs, not to ECs. LXW7 bound well to both EPCs and ECs.
# platelets = experiment: platelet-bead binding assay; type: cell-based; conditions: 10 minutes, 30 minutes or 2 hours
# Description: HECFCs, HCAECs and HMVECs were cultured in EC expansion medium EGM-2 and THP-1 monocytes were cultured in RPMI Medium 1640 (Gibco) supplemented with 10% fetal bovine serum (FBS, Hyclone) and 0.05 mM 2-mercaptoethanol (Sigma). αvβ3-K562 cells and αIIbβ3-K562 cells were cultured in RPMI Medium 1640 plus 10% FBS. Platelet-rich plasma (PRP) was obtained from UC Davis Medical Center (Sacramento, Calif.). Fresh PRP (260×10^3 platelets/μL) was centrifuged, and the pellets were resuspended in Dulbecco's Phosphate Buffer Saline (DPBS; Hyclone) containing 2 mM CaCl2) and MgCl2 to a final concentration of 1×10^8 platelets/mL.
# as §1, with “Phase contrast images were taken at different time points using an Olympus IX81 microscope.” left out
# HCAECs [2] = experiment: flow cytometry ligand-cell binding, HCAECs; design: species or system human; conditions: biotinylated ligand 1 μM, streptavidin-phycoerythrin
# Description: (§2) FIG. 10 presents flow cytometry data from an assay of binding affinity of LXW7 and GRGD (SEQ ID NO: 1) to different cell types. Tests included EPCs/ECs from different sources, including HECFCs (A), HCAECs (B), HMVECs (C), and THP-1 monocytes (D), Platelets (E), as well as K562 cells engineered to highly express αvβ3 (αvβ3-K562, F), and αIIbβ3 (αIIbβ3-K562, G). Cells were incubated with the LXW7-bio, GRGD-bio (SEQ ID NO: 1), or D-Biotin peptide and subsequently incubated with streptavidin-phycoerythrin. Flow cytometry analysis was performed to determine the binding affinity of the ligands. Samples treated with D-biotin were used as negative controls.
# (§3) LXW7-bio (1 μM) was incubated with 3×10^5 HECFCs, HCAECs, HMVECs, αvβ3-K562 and αIIbβ3-K562 cells and THP-1 monocytes and 1×10^8 platelets in binding buffer (HEPES containing 10% FBS) on ice for 30 minutes. The samples were washed three times with DPBS containing 1% FBS and incubated with 2 μg/ml of streptavidin-phycoerythrin on ice for 30 minutes and then washed with DPBS. Samples were analyzed on a BD Fortessa LSR Cell Analyzer and further data analysis and gating were performed using FlowJo software (Treestar, Inc.).
# integrin αvβ3 = molecular target: T1, integrin αvβ3 (Homo sapiens, UniProt P05106+P06756); experiment: flow cytometry ligand-cell binding, αvβ3-K562 cells; conditions: K562 cells highly expressing integrin αvβ3
# T1 construct: expressed in transfected cells; host or cells: K562 myeloid leukemia cells (αvβ3-K562), provided by Dr. Yoshikazu Takada
# Description: as §2
# (§4) Human coronary artery endothelial cells (HCAECs) were purchased from ATCC. Human cardiac microvascular endothelial cells (HMVECs) were purchased from Lonza. THP-1 monocytes were obtained from Dr. Pamela Lein (University of California, Davis). […]
# as §3, with “The samples were washed three times with DPBS containing 1% FBS and incubated with 2 μg/ml of streptavidin-phycoerythrin on ice for 30 minutes and then washed with DPBS.” left out
# integrin αIIbβ3 = molecular target: T2, integrin αIIbβ3 (Homo sapiens, UniProt P05106+P08514); experiment: flow cytometry ligand-cell binding, αIIbβ3-K562 cells; conditions: K562 cells highly expressing αIIbβ3
# T2 construct: expressed in transfected cells; host or cells: K562 myeloid leukemia cells (αIIbβ3-K562), provided by Dr. Jennifer Cochran (Stanford University)
# Description: as §2, §4
# as §3, with “The samples were washed three times with DPBS containing 1% FBS and incubated with 2 μg/ml of streptavidin-phycoerythrin on ice for 30 minutes and then washed with DPBS.” left out
# [3] = 10 minutes, 30 minutes or 2 hours
# T1 sequence (P06756 31-889 limits assumed): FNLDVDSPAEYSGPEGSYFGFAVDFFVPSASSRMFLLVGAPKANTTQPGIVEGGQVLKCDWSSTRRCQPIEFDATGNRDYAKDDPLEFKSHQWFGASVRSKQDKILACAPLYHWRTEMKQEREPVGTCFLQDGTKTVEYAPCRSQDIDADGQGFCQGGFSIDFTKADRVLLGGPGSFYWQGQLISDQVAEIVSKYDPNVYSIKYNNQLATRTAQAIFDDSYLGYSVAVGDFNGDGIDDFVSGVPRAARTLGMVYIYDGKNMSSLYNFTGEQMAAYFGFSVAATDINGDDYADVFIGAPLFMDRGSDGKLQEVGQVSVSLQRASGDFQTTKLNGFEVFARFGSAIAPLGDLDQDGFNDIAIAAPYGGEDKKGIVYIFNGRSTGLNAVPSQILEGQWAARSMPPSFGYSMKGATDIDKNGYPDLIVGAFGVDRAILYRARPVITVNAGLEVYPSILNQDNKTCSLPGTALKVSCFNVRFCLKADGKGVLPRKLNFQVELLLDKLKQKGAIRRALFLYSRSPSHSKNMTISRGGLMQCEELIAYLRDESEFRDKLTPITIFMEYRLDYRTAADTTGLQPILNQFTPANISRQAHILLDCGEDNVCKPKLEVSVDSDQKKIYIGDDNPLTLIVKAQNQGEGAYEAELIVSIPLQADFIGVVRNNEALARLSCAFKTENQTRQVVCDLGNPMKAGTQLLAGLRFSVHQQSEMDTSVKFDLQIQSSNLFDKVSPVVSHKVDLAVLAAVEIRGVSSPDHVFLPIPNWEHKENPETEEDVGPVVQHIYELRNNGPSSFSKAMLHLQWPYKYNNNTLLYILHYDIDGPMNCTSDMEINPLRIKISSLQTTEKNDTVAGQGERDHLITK
# T1 sequence (P06756 891-1048 partner limits assumed): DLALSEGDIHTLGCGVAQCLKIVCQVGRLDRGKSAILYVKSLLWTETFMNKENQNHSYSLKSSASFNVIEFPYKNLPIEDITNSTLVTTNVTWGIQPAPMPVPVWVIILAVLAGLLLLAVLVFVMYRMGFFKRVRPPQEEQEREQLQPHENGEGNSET
# T1 sequence (P05106 27-788): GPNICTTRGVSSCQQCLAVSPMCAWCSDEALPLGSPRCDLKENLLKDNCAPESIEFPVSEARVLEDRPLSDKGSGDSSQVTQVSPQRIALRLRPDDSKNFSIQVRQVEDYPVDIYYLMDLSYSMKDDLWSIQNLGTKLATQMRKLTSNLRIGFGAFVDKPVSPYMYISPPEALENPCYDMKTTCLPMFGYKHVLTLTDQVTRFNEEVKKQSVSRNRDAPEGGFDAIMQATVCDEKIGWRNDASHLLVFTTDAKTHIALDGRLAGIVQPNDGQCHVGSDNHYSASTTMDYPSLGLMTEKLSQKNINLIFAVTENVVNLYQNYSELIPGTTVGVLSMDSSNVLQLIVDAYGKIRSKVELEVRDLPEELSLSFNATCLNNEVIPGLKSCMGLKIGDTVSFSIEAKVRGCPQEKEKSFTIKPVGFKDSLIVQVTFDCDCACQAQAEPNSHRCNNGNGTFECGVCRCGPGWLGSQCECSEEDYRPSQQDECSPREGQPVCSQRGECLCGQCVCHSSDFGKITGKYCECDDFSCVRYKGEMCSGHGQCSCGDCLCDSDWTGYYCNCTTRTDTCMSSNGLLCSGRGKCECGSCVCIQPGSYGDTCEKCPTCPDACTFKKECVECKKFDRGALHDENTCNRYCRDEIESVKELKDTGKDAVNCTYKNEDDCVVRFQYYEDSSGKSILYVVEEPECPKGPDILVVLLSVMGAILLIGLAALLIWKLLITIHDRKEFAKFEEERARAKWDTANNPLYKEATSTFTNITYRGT
substance,measurement,setting,value
cGRGDdvc [LXW7],attachment of HECFCs to beads displaying LXW7,HECFCs; [3],efficiently supported attachment of EPCs/ECs from different sources; also recorded: efficiently supported EPC/EC attachment
same,binding of HECFCs to ligand-displaying resin beads,HECFCs; 2 hours incubation,bound both HECFCs and HCAECs
same,attachment of HCAECs to beads displaying LXW7,HCAECs [1]; [3],efficiently supported attachment of EPCs/ECs from different sources; also recorded: efficiently supported EPC/EC attachment
same,binding of HCAECs to ligand-displaying resin beads,HCAECs [1]; 2 hours incubation,bound both HECFCs and HCAECs
same,attachment of platelets to beads displaying LXW7,platelets,did not support effective attachment
same,binding affinity to HCAECs by flow cytometry,HCAECs [2],higher binding affinity with different types of EPCs/ECs than conventional GRGD peptide
same,binding affinity to αvβ3-K562 cells by flow cytometry,integrin αvβ3,higher binding affinity than GRGD
same,binding to αIIbβ3-K562 cells by flow cytometry,integrin αIIbβ3,very low binding
